Data published in patent US10550111B2, “Pyrimidine urea compound containing isoxazolines and use thereof” (SHENYANG SINOCHEM AGROCHEMICALS R&D CO., LTD, priority 2014, dated 2020).

Tests used:
[1] = system: broad-leaf weeds and grass weeds; assay: General screening of herbicidal activity in greenhouse; format: in vivo; details: 1000 g a.i./hm^2;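 further: 0 means no visible effect and 100 means all weeds dead or not emerged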
Outline: (§1)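 Visual growth inhibition rating (0–100%; 100 = weeds dead or not emerged) after track-sprayer application of compounds formulated as emulsifiable concentrates. Sprays given 24 h post-sowing (pre-emergence) or at 2–3-leaf (grasses) / 2–4-leaf (broad-leaves) stage, greenhouse-grown plants.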

[2] = system: Amaranthus retroflexus L.; assay: Weed spectrum study in greenhouse; format: in vivo
Description: Seeds of monocotyledonous and dicotyledonous weeds were sown in nutrition soil in paper pot (7 cm diameter), covered with soil in 1 cm and grown in the greenhouse under good growth conditions (temperature, atmospheric humidity, water supply). The compounds of the present invention as emulsifiable concentrate, were applied in pre-emergence and post-emergence treatment by track sprayer (Engineer Research Ltd., pressure 1.95 kg/cm^2, volume 500 L/hm^2, track speed 1.48 km/h). Pre-emergence treatment was conducted after seeding 24 hours and post-emergence treatment was done when the respective weeds reached predetermined leaf stage (grass weed 2- to 3-leaf stage, […]), the state of growth of the respective weeds were visually observed to determine the growth inhibition rate (%) in accordance with the following evaluation standard.
(§2) Growth inhibition rate (%): 0=no discernible action: 100=all weeds dead or not emerged.
(§3) The method is as example 18.

grass weed = assay: Field trial, weed control in orchard (non-cultivated land); format: in vivo, Digitaria sanguinalis (L.) Scop.
Procedure: (§4) The field trial was conducted in an orchard located at Liaoyang city, Liaoning province, China; the orchard planted mainly apple trees and almond trees, plum trees and pear trees as well, weeding control were conducted three times one year by application of paraquat. Weeds were distributed uniformity and moderate density, mainly of broad-leaf weeds including Conyza canadensis (L.)Cronq., Sonchus brachyotus DC., Polygonum aviculare L., Humulus scandens (Lour.) Merr., Ixeridium sonchifolium (Maxim.) Shih, Galium aparine L. var. tenerum Gren. et (Godr.) Rebb., Rumex japonicus Houtt. and Metaplexis japonica (Thunb.) Makino, partly of grass weed was Digitaria sanguinalis (L.) Scop., average height range was between 30 and 40 cm. sprayer was knapsack hand-operated sprayer(AGROLEX HD400) produced by AGROLEx PTE Ltd., spray volume was 675 L/hm^2, processing date was Jul. 3, 2015. On the 15th day after application, weeds were visually observed to determine the growth inhibition rate (%).

[3] = system: Echinochloa crus-galli (L.) Beauv.; assay: Bioassay of herbicidal activity in greenhouse (further screening); format: in vivo
Outline: as §1

[4] = system: Abutilon theophrasti Medic.; assay: as above; format: in vivo
Outline: as §1

[5] = system: Setaria glauca (L.) Beauv.; assay: as above; format: in vivo
Outline: as §1

Zinnia elegans Jacq. = assay: as above; format: in vivo
Outline: as §1

weeds = assay: Field trial, weed control in orchard (non-cultivated land); format: in vivo
Procedure: as §4

broad-leaf weeds = assay: as above; format: in vivo
Procedure: as §4

[6] = system: Digitaria sanguinalis (L.); assay: Weed spectrum study in greenhouse; format: in vivo
Description: Seeds of monocotyledonous and dicotyledonous weeds were sown in nutrition soil in paper pot (7 cm diameter), covered with soil in 1 cm and grown in the greenhouse under good growth conditions (temperature, atmospheric humidity, water supply). The compounds of the present invention as emulsifiable concentrate, were applied in pre-emergence and post-emergence treatment by track sprayer (Engineer Research Ltd., pressure 1.95 kg/cm^2, volume 500 L/hm^2, track speed 1.48 km/h). Pre-emergence treatment was conducted after seeding 24 hours and post-emergence treatment was done when the respective weeds reached predetermined leaf stage ([…], broad-leaf weed 2- to 4-leaf stage), the state of growth of the respective weeds were visually observed to determine the growth inhibition rate (%) in accordance with the following evaluation standard.
as §2, §3

Cyperus difformis L. = assay: Weed spectrum study in greenhouse; format: in vivo
Description: (§5) Seeds of monocotyledonous and dicotyledonous weeds were sown in nutrition soil in paper pot (7 cm diameter), covered with soil in 1 cm and grown in the greenhouse under good growth conditions (temperature, atmospheric humidity, water supply). The compounds of the present invention as emulsifiable concentrate, were applied in pre-emergence and post-emergence treatment by track sprayer (Engineer Research Ltd., pressure 1.95 kg/cm^2, volume 500 L/hm^2, track speed 1.48 km/h). Pre-emergence treatment was conducted after seeding 24 hours and post-emergence treatment was done when the respective weeds reached predetermined leaf stage (grass weed 2- to 3-leaf stage, broad-leaf weed 2- to 4-leaf stage), the state of growth of the respective weeds were visually observed to determine the growth inhibition rate (%) in accordance with the following evaluation standard.
as §2, §3

[7] = system: Arthraxon hispidus (Thunb.) Makino; assay: Weed spectrum study in greenhouse; format: in vivo
Description: as §5, §2, §3

Cyperus glomeratus L. = assay: Weed spectrum study in greenhouse; format: in vivo
Description: Seeds of monocotyledonous and dicotyledonous weeds were sown in nutrition soil in paper pot (7 cm diameter), covered with soil in 1 cm and grown in the greenhouse under good growth conditions (temperature, atmospheric humidity, water supply). The compounds of the present invention as emulsifiable concentrate, were applied in pre-emergence and post-emergence treatment by track sprayer (Engineer Research Ltd., pressure 1.95 kg/cm^2, volume 500 L/hm^2, track speed 1.48 km/h). Pre-emergence treatment was conducted after seeding 24 hours and post-emergence treatment was done when the respective weeds reached predetermined leaf stage ([…]), the state of growth of the respective weeds were visually observed to determine the growth inhibition rate (%) in accordance with the following evaluation standard.
as §2, §3

[8] = dose 60 g a.i./hm^2, 15th day after application
[9] = dose 120 g a.i./hm^2, 15th day after application
[10] = dose 180 g a.i./hm^2, 15th day after application
[11] = dose 240 g a.i./hm^2, 15th day after application
[12] = dose 300 g a.i./hm^2, 15th day after application
[13] = pre-emergence, dose 600 g a.i./hm^2

`CCOC(=O)C1(C)CC(c2cc(-n3c(=O)cc(C(F)(F)F)n(C)c3=O)c(F)cc2Cl)=NO1` (stereo not drawn) [Compound 6] was tested, and the “pre-emergence and post-emergence herbicidal activity against broad-leaf weeds and grass weeds” value [1] was “good”, the “Growth inhibition rate, Amaranthus retroflexus L. (height 10-15 cm)” value (“Growth inhibition rate … (height 10-15 cm)” below) ([2]; dose 7.5 g a.i./hm^2) was 90% and the “Growth inhibition rate … (height 10-15 cm)” value ([2]; dose 15 g a.i./hm^2) was 98%. The “Growth inhibition rate … (height 10-15 cm)” value ([2]; dose 30 g a.i./hm^2) was 100%, the “Growth inhibition rate … (height 10-15 cm)” value ([2]; dose 60 g a.i./hm^2) was 100% and the “Growth inhibition rate … (height 10-15 cm)” value ([2]; dose 120 g a.i./hm^2) was 100%. The “Growth inhibition rate (%) of grass weed” value (grass weed; [8]) was 61.7%, the “Growth inhibition rate (%) of grass weed” value (grass weed; [9]) was 71.7% and the “Growth inhibition rate (%) of grass weed” value (grass weed; [10]) was 83.3%. The “Growth inhibition rate (%) of grass weed” value (grass weed; [11]) was 88.3%, the “Growth inhibition rate (%) of grass weed” value (grass weed; [12]) was 94.3% and the “Growth inhibition rate, Post-emergence treatment, Echinochloa crus-galli (L.) Beauv.” value ([3]; dose 7.5 g a.i./hm^2) was 70%. For the same compound, the “Growth inhibition rate, Post-emergence treatment, Echinochloa crus-galli (L.) Beauv.” value ([3]; dose 15 g a.i./hm^2) was 98%, the “Growth inhibition rate, Post-emergence treatment, Echinochloa crus-galli (L.) Beauv.” value ([3]; dose 30.0 g a.i./hm^2) was 98% and the “Growth inhibition rate, Post-emergence treatment, Echinochloa crus-galli (L.) Beauv.” value ([3]; dose 60.0 g a.i./hm^2) was 100%. The “Growth inhibition rate, Post-emergence treatment, Echinochloa crus-galli (L.) Beauv.” value ([3]; dose 120.0 g a.i./hm^2) was 100%, the “Growth inhibition rate, Post-emergence treatment, Echinochloa crus-galli (L.) Beauv.” value ([3]; dose 600 g a.i./hm^2) was 100% and the “Growth inhibition rate, Pre-emergence treatment, Echinochloa crus-galli (L.) Beauv.” value [3, 13] was 70%. The “Growth inhibition rate, Post-emergence treatment, Abutilon theophrasti Medic.” value ([4]; dose 7.5 g a.i./hm^2) was 100%, the “Growth inhibition rate, Post-emergence treatment, Abutilon theophrasti Medic.” value ([4]; dose 15 g a.i./hm^2) was 100% and the “Growth inhibition rate, Post-emergence treatment, Abutilon theophrasti Medic.” value ([4]; dose 30.0 g a.i./hm^2) was 100%. The “Growth inhibition rate, Post-emergence treatment, Abutilon theophrasti Medic.” value ([4]; dose 60.0 g a.i./hm^2) was 100%, the “Growth inhibition rate, Post-emergence treatment, Abutilon theophrasti Medic.” value ([4]; dose 120.0 g a.i./hm^2) was 100% and the “Growth inhibition rate, Post-emergence treatment, Abutilon theophrasti Medic.” value ([4]; dose 600 g a.i./hm^2) was 100%. The “Growth inhibition rate, Pre-emergence treatment, Abutilon theophrasti Medic.” value [4, 13] was 100%, the “Growth inhibition rate, Post-emergence treatment, Setaria glauca (L.) Beauv.” value ([5]; dose 7.5 g a.i./hm^2) was 85% and the “Growth inhibition rate, Post-emergence treatment, Setaria glauca (L.) Beauv.” value ([5]; dose 15 g a.i./hm^2) was 98%. The “Growth inhibition rate, Post-emergence treatment, Setaria glauca (L.) Beauv.” value ([5]; dose 30.0 g a.i./hm^2) was 95%, the “Growth inhibition rate, Post-emergence treatment, Setaria glauca (L.) Beauv.” value ([5]; dose 60.0 g a.i./hm^2) was 100% and the “Growth inhibition rate, Post-emergence treatment, Setaria glauca (L.) Beauv.” value ([5]; dose 120.0 g a.i./hm^2) was 100%. For the same compound, the “Growth inhibition rate, Post-emergence treatment, Setaria glauca (L.) Beauv.” value ([5]; dose 600 g a.i./hm^2) was 100%, the “Growth inhibition rate, Pre-emergence treatment, Setaria glauca (L.) Beauv.” value [5, 13] was 55% and the “Growth inhibition rate, Post-emergence treatment, Zinnia elegans Jacq.” value (Zinnia elegans Jacq.; dose 7.5 g a.i./hm^2) was 95%. The “Growth inhibition rate, Post-emergence treatment, Zinnia elegans Jacq.” value (Zinnia elegans Jacq.; dose 15 g a.i./hm^2) was 98%, the “Growth inhibition rate, Post-emergence treatment, Zinnia elegans Jacq.” value (Zinnia elegans Jacq.; dose 30.0 g a.i./hm^2) was 100% and the “Growth inhibition rate, Post-emergence treatment, Zinnia elegans Jacq.” value (Zinnia elegans Jacq.; dose 60.0 g a.i./hm^2) was 100%. The “Growth inhibition rate, Post-emergence treatment, Zinnia elegans Jacq.” value (Zinnia elegans Jacq.; dose 120.0 g a.i./hm^2) was 100%, the “Growth inhibition rate, Post-emergence treatment, Zinnia elegans Jacq.” value (Zinnia elegans Jacq.; dose 600 g a.i./hm^2) was 100% and the “Growth inhibition rate, Pre-emergence treatment, Zinnia elegans Jacq.” value (Zinnia elegans Jacq.; [13]) was 55%. The “Total growth inhibition rate (%) of weeds” value (weeds; [8]) was 81.7%, the “Total growth inhibition rate (%) of weeds” value (weeds; [9]) was 91.7% and the “Total growth inhibition rate (%) of weeds” value (weeds; [10]) was 91.7%. The “Total growth inhibition rate (%) of weeds” value (weeds; [11]) was 93.3%, the “Total growth inhibition rate (%) of weeds” value (weeds; [12]) was 98.7% and the “Growth inhibition rate (%) of broad-leaf weeds” value (broad-leaf weeds; [8]) was 85.0%. The “Growth inhibition rate (%) of broad-leaf weeds” value (broad-leaf weeds; [9]) was 93.3%, the “Growth inhibition rate (%) of broad-leaf weeds” value (broad-leaf weeds; [10]) was 94.3% and the “Growth inhibition rate (%) of broad-leaf weeds” value (broad-leaf weeds; [11]) was 97.0%. The “Growth inhibition rate (%) of broad-leaf weeds” value (broad-leaf weeds; [12]) was 92.7%, the “Growth inhibition rate, Digitaria sanguinalis (L.) (4,5-leaf stage)” value (“Growth inhibition rate … (L.) (4,5-leaf stage)” below) ([6]; dose 7.5 g a.i./hm^2) was 80% and the “Growth inhibition rate … (L.) (4,5-leaf stage)” value ([6]; dose 15 g a.i./hm^2) was 90%. The “Growth inhibition rate … (L.) (4,5-leaf stage)” value ([6]; dose 30 g a.i./hm^2) was 100%, the “Growth inhibition rate … (L.) (4,5-leaf stage)” value ([6]; dose 60 g a.i./hm^2) was 100% and the “Growth inhibition rate … (L.) (4,5-leaf stage)” value ([6]; dose 120 g a.i./hm^2) was 100%. For the same compound, the “Growth inhibition rate, Cyperus difformis L. (4,5-leaf stage)” value (Cyperus difformis L.; dose 7.5 g a.i./hm^2) was 30%, the “Growth inhibition rate, Cyperus difformis L. (4,5-leaf stage)” value (Cyperus difformis L.; dose 15 g a.i./hm^2) was 60% and the “Growth inhibition rate, Cyperus difformis L. (4,5-leaf stage)” value (Cyperus difformis L.; dose 30 g a.i./hm^2) was 90%. For the same compound, the “Growth inhibition rate, Cyperus difformis L. (4,5-leaf stage)” value (Cyperus difformis L.; dose 60 g a.i./hm^2) was 95%, the “Growth inhibition rate, Cyperus difformis L. (4,5-leaf stage)” value (Cyperus difformis L.; dose 120 g a.i./hm^2) was 100% and the “Growth inhibition rate, Arthraxon hispidus (Thunb.) Makino (3-leaf stage)” value (“Growth inhibition rate … (3-leaf stage)” below) ([7]; dose 7.5 g a.i./hm^2) was 60%. The “Growth inhibition rate … (3-leaf stage)” value ([7]; dose 15 g a.i./hm^2) was 85%, the “Growth inhibition rate … (3-leaf stage)” value ([7]; dose 30 g a.i./hm^2) was 90% and the “Growth inhibition rate … (3-leaf stage)” value ([7]; dose 60 g a.i./hm^2) was 100%. For the same compound, the “Growth inhibition rate … (3-leaf stage)” value ([7]; dose 120 g a.i./hm^2) was 100%, the “Growth inhibition rate, Cyperus glomeratus L. (5-leaf stage)” value (“Growth inhibition rate … (5-leaf stage)” for short) (Cyperus glomeratus L.; dose 7.5 g a.i./hm^2) was 80% and the “Growth inhibition rate … (5-leaf stage)” value (Cyperus glomeratus L.; dose 15 g a.i./hm^2) was 80%. For the same compound, the “Growth inhibition rate … (5-leaf stage)” value (Cyperus glomeratus L.; dose 30 g a.i./hm^2) was 90%, the “Growth inhibition rate … (5-leaf stage)” value (Cyperus glomeratus L.; dose 60 g a.i./hm^2) was 100% and the “Growth inhibition rate … (5-leaf stage)” value (Cyperus glomeratus L.; dose 120 g a.i./hm^2) was 100%.
